In US20230265104A1, “NOVEL HETEROCYCLIC COMPOUNDS” (PRISM BIOLAB CO., LTD., priority 2020, published 2023):

Tested on: PANC-1 (human pancreatic cancer-derived cell line)
Assay: MTS assay on Panc-1 (human pancreas carcinoma cell line)
Format: cell-based
Conditions: 144 h; for IC50: PANC-1, MTS method, cell survival 6 days after exposure, 4-parameter logistic fit; for inhibition at 10 µM: PANC-1, MTS, 6 days, read-out: Growth inhibition (%) 10 μM
Procedure: Experimental Example: MTS Assay on Panc-1 (Human Pancreas Carcinoma Cell Line) cell line name: PANC-1 derived from: human pancreas glandular cancer purchased from: ATCC product code: CRL-1469 proliferation medium: D-MEM+10% FBS culture environment: 37° C., 5% CO2 seeding density: 5.0×10^5 cells/25 cm^2 solvent control substance: DMSO (HYBRI-MAX®, Sigma-Aldrich Corp.) test substance: Example compound (ID-1-ID-13) A DMSO solution of the test substance was prepared by serially diluting (common ratio 2) each test substance with DMSO.
A solvent control substance sample and a test substance sample were exposed to a human pancreatic cancer-derived cell line (PANC-1), and the survival rate of the cell 6 days later was measured by the MTS method. The measurement was performed 3 times and the average thereof was adopted. The survival rate of the cell in each test substance sample was calculated by the following formula 1 with the value at exposure of the solvent control substance sample as 100% survival rate. […]
survival rate (%)=100×absorbance of each test substance sample/absorbance of solvent control substance sample formula 1 Normalized values calculated by the following formula 2 from the absorbances of each sample at 492 nm and 630 nm and the absorbances of the blank were used as the absorbances in the above-mentioned formula 1. […]
normalized value (ABS492 nm-630 nm)=(ABSsa 492 nm-ABSsa 630 nm)−(ABSbl 492 nm-ABSbl 630 nm) ABSsa 492: absorbance of each sample at wavelength 492 nm ABSsa 630: absorbance of each sample at wavelength 630 nm ABSbl 492: absorbance of blank corresponding to each sample at wavelength 492 nm ABSbl 630: absorbance of blank corresponding to each sample at wavelength 630 nm formula 2 […]
The analysis was performed by using nplr package on R (The R Foundation for Statistical Computing) and estimating the logistic regression curve (4-parameter).

| Structure (SMILES) | IC50 [µM] | inhibition at 10 µM [%] |
| --- | --- | --- |
| CC(C)C[C@H]1ON(C(=O)/C=C/c2ccc3cccnc3n2)[C@H]2CN(CCC(N)=O)C(=O)[C@H](CC(C)C)N2C1=O [ID-31, 3-((3R,6S,9aS)-1-((E)-3-(1,8-naphthyridin-2-yl)acryloyl)-3,6-diisobutyl-4,7-dioxohexahydropyrazino[2,1-c][1,2,4]oxadiazin-8(1H)-yl)propanamide] | 2.7 | 99.3 |
| CC(C)C[C@H]1ON(C(=O)/C=C/c2nc3cccnc3s2)[C@H]2CN(CCC(N)=O)C(=O)[C@H](CC(C)C)N2C1=O [ID-32, 3-((3R,6S,9aS)-3,6-diisobutyl-4,7-dioxo-1-((E)-3-(thiazolo[5,4-b]pyridin-2-yl)acryloyl)hexahydropyrazino[2,1-c][1,2,4]oxadiazin-8(1H)-yl)propanamide] | 0.62 | 101 |
| CCOC(=O)c1cnc(/C=C/C(=O)N2O[C@H](CC(C)C)C(=O)N3[C@@H]2CN(CCC(N)=O)C(=O)[C@@H]3CC(C)C)s1 [ID-33, ethyl 2-((E)-3-((3R,6S,9aS)-8-(3-amino-3-oxopropyl)-3,6-diisobutyl-4,7-dioxohexahydropyrazino[2,1-c][1,2,4]oxadiazin-1(6H)-yl)-3-oxoprop-1-en-1-yl)thiazole-5-carboxylate] | 1.1 | 99.9 |
| Cc1nc(/C=C/C(=O)N2O[C@H](CC(C)C)C(=O)N3[C@@H]2CN(CCC(N)=O)C(=O)[C@@H]3CC(C)C)sc1C [ID-34, 3-((3R,6S,9aS)-1-((E)-3-(4,5-dimethylthiazol-2-yl)acryloyl)-3,6-diisobutyl-4,7-dioxohexahydropyrazino[2,1-c][1,2,4]oxadiazin-8(1H)-yl)propanamide] | 2.6 | 95.5 |
| CC(C)C[C@H]1CN(CCCN(C)C2CCN(C)CC2)C[C@@H]2N(C(=O)/C=C/c3ccccn3)O[C@H](CC(C)C)C(=O)N12 [ID-35, (3R,6S,9aS)-3,6-diisobutyl-8-(3-(methyl(1-methylpiperidin-4-yl)amino)propyl)-1-((E)-3-(pyridin-2-yl)acryloyl)hexahydropyrazino[2,1-c][1,2,4]oxadiazin-4(3H)-one] | 5 | 99 |
| CC(C)C[C@H]1ON(C(=O)/C=C/c2ccccn2)[C@H]2CN(C3CCN(Cc4ncccn4)CC3)C(=O)[C@H](CC(C)C)N2C1=O [ID-36, (3R,6S,9aS)-3,6-diisobutyl-1-((E)-3-(pyridin-2-yl)acryloyl)-8-(1-(pyrimidin-2-ylmethyl)piperidin-4-yl)tetrahydropyrazino[2,1-c][1,2,4]oxadiazine-4,7(3H,6H)-dione] |  | 76 |
| CC(C)C[C@H]1ON(C(=O)/C=C/c2nc3c(s2)CCCC3)[C@H]2CN(CCC(N)=O)C(=O)[C@H](CC(C)C)N2C1=O [ID-37, 3-((3R,6S,9aS)-3,6-diisobutyl-4,7-dioxo-1-((E)-3-(4,5,6,7-tetrahydrobenzo[d]thiazol-2-yl)acryloyl)hexahydropyrazino[2,1-c][1,2,4]oxadiazin-8 (1H)-yl)propanamide] | 4.7 | 95.8 |
| CC(C)C[C@H]1ON(C(=O)/C=C\c2ccccc2)[C@H]2CN(C3CCN(C)CC3)C(=O)[C@H](CC(C)C)N2C1=O [ID-38, (3R,6S,9aS)-3,6-diisobutyl-8-(1-methylpiperidin-4-yl)-1-((Z)-3-phenylacryloyl)tetrahydropyrazino[2,1-c] [1,2,4] oxadiazine-4,7 (3H, 6H)-dione] | 8 | 82.6 |
| CC(C)C[C@H]1ON(C(=O)/C=C/c2ccccc2)[C@H]2CN(C3CCN(C)CC3)C(=O)[C@H](CC(C)C)N2C1=O [ID-39, (3R,6S,9aS)-1-cinnamoyl-3,6-diisobutyl-8-(1-methylpiperidin-4-yl)tetrahydropyrazino[2,1-c][1,2,4]oxadiazine-4,7 (3H, 6H)-dione] | 8.9 | 80.8 |
| CC(C)C[C@H]1ON(C(=O)/C=C/c2ccccn2)[C@H]2CN(C3CCN(C4CCN(C(C)C)CC4)CC3)C(=O)[C@H](CC(C)C)N2C1=O [ID-40, (3R,6S,9aS)-3,6-diisobutyl-8-(1′-isopropyl-[1,4′-bipiperidin]-4-yl)-1-((E)-3-(pyridin-2-yl)acryloyl)tetrahydropyrazino[2,1-c][1,2,4]oxadiazine-4,7(3H,6H)-dione] | 4 | 102 |
| CC(=O)N1CCC(N2CCC(N3C[C@@H]4N(C(=O)/C=C/c5ccccn5)O[C@H](CC(C)C)C(=O)N4[C@@H](CC(C)C)C3=O)CC2)CC1 [ID-41, (3R,6S,9aS)-8-(1′-acetyl-[1,4′-bipiperidin]-4-yl)-3,6-diisobutyl-1-((E)-3-(pyridin-2-yl)acryloyl)tetrahydropyrazino[2,1-c][1,2,4]oxadiazine-4,7(3H,6H)-dione] | 6.3 | 98.5 |
| CC(C)C[C@H]1ON(C(=O)/C=C/[C@@H]2CCCN2C)[C@H]2CN(CCC(N)=O)C(=O)[C@H](CC(C)C)N2C1=O [ID-42, 3-((3R,6S,9aS)-3,6-diisobutyl-1-((E)-3-((S)-1-methylpyrrolidin-2-yl)acryloyl)-4,7-dioxohexahydropyrazino[2,1-c][1,2,4]oxadiazin-8(1H)-yl)propanamide] |  | 65.3 |
| CC(C)C[C@H]1ON(C(=O)/C=C/[C@H]2CCCN2C)[C@H]2CN(CCC(N)=O)C(=O)[C@H](CC(C)C)N2C1=O [ID-43, 3-((3R,6S,9aS)-3,6-diisobutyl-1-((E)-3-((R)-1-methylpyrrolidin-2-yl)acryloyl)-4,7-dioxohexahydropyrazino[2,1-c][1,2,4]oxadiazin-8 (1H)-yl)propanamide] | 9.4 | 78.5 |
| CC(C)C[C@H]1ON(C(=O)/C=C/c2ccnn2C)[C@H]2CN(C3CCN(C)CC3)C(=O)[C@H](CC(C)C)N2C1=O [ID-44, (3R,6S,9aS)-3,6-diisobutyl-1-((E)-3-(1-methyl-1H-pyrazol-5-yl)acryloyl)-8-(1-methylpiperidin-4-yl)tetrahydropyrazino[2,1-c][1,2,4]oxadiazine-4,7(3H,6H)-dione] |  | 94.7 |
| CC(=O)N1CCC(N2C[C@@H]3N(C(=O)/C=C/c4nc5ccccc5s4)O[C@H](CC(C)C)C(=O)N3[C@@H](CC(C)C)C2=O)CC1 [ID-45, (3R,6S,9aS)-8-(1-acetylpiperidin-4-yl)-1-((E)-3-(benzo[d]thiazol-2-yl)acryloyl)-3,6-diisobutyltetrahydropyrazino[2,1-c][1,2,4]oxadiazine-4,7(3H,6H)-dione] | 0.81 | 101 |
| CC(C)C[C@H]1ON(C(=O)/C=C/c2nc3ccccc3o2)[C@H]2CN(C3CCN(C)CC3)C(=O)[C@H](CC(C)C)N2C1=O [ID-46, (3R, 6S, 9aS)-1-((E)-3-(benzo[d]oxazol-2-yl)acryloyl)-3,6-diisobutyl-8-(1-methylpiperidin-4-yl)tetrahydropyrazino[2,1-c][1,2,4]oxadiazine-4,7(3H,6H)-dione] | 1.4 | 99.1 |
| CC(C)C[C@H]1ON(C(=O)/C(Cl)=C/c2ccccn2)[C@H]2CN(C3CCN(C)CC3)C(=O)[C@H](CC(C)C)N2C1=O [ID-47, (3R,6S,9aS)-1-((Z)-2-chloro-3-(pyridin-2-yl)acryloyl)-3,6-diisobutyl-8-(1-methylpiperidin-4-yl)tetrahydropyrazino[2,1-c][1,2,4]oxadiazine-4,7(3H,6H)-dione] | 10 | 66.6 |
| CC(C)C[C@H]1ON(C(=O)/C=C/c2cc(C#N)ccn2)[C@H]2CN(C3CCN(C)CC3)C(=O)[C@H](CC(C)C)N2C1=O [ID-48, 2-((E)-3-((3R,6S,9aS)-3,6-diisobutyl-8-(1-methylpiperidin-4-yl)-4,7-dioxohexahydropyrazino[2,1-c][1,2,4]oxadiazin-1(6H)-yl)-3-oxoprop-1-en-1-yl)isonicotinonitrile] | 0.58 | 100 |
| CC(C)C[C@H]1ON(C(=O)/C=C/c2cc3n(n2)CCOC3)[C@H]2CN(C3CCN(C)CC3)C(=O)[C@H](CC(C)C)N2C1=O [ID-49, (3R,6S,9aS)-1-((E)-3-(6,7-dihydro-4H-pyrazolo[5,1-c][1,4]oxazin-2-yl)acryloyl)-3,6-diisobutyl-8-(1-methylpiperidin-4-yl)tetrahydropyrazino[2,1-c][1,2,4]oxadiazine-4,7 (3H, 6H)-dione] |  | 74.9 |
| CC(C)C[C@H]1ON(C(=O)/C=C/c2nc3ccccc3s2)[C@H]2CN(C3CCN(C(=O)c4ncc(F)cn4)CC3)C(=O)[C@H](CC(C)C)N2C1=O [ID-50, (3R,6S,9aS)-1-((E)-3-(benzo[d]thiazol-2-yl)acryloyl)-8-(1-(5-fluoropyrimidine-2-carbonyl)piperidin-4-yl)-3,6-diisobutyltetrahydropyrazino[2,1-c][1,2,4]oxadiazine-4,7(3H,6H)-dione] | 0.59 | 101 |
